Data: BindingDB's records for doi:10.1021/bi200655g (Glaxosmithkline, 2011)
pKi: −log10 of the molar value.

Target: T1, Peptide deformylase (Streptococcus pneumoniae (strain ATCC BAA-255 / R6), UniProt Q8DP79)
T1 sequence (Q8DP79 whole entry): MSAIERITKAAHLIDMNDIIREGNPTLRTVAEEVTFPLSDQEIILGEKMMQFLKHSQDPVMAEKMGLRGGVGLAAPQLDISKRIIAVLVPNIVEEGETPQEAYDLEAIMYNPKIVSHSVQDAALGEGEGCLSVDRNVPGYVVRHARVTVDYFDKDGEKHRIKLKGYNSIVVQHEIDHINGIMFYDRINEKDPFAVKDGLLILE
Assay: Binding Assay
Source text: Binding assay using PDF inhibitors.

SMILES | pKi
CCCCC[C@H](CN(O)C=O)C(=O)NNc1nccc(C(F)(F)F)n1 [PDF inhibitor, compound 1] | 5.20
O=CC(O)CCNC(=O)c1cccc(Cl)c1Cl (stereo unspecified) [PDF inhibitor, compound 4] | 4.59
Cc1ccccc1Nc1nc(N2CCN(c3ccccc3Cl)CC2)nc(N2CSC[C@H]2C(=O)NCC(=O)NO)n1 [PDF inhibitor, compound 7] | 6.19

Stronger by pKi, values ahead:

pKi | SMILES
6.67 | CNC(=O)c1cccc(C)c1Nc1nc(N2CCN(c3ccccc3Cl)CC2)nc(N2CSC[C@H]2COCC(=O)NO)n1 [PDF inhibitor, compound 6]
6.48 | CNC(=O)c1cccc(C)c1Nc1nc(N2CCN(c3ccccc3Cl)CC2)nc(N2CSC[C@H]2C(=O)NCC(=O)NO)n1 [PDF inhibitor, compound 2]
7.27 | Cc1ccccc1Nc1nc(N2CCN(c3ccccc3Cl)CC2)nc(N2CSC[C@H]2COCC(=O)NO)n1 [PDF inhibitor, compound 8]
